In patent US20220267736A1, “PLURIPOTENT STEM CELL AGGREGATION SUPPRESSOR” (KANEKA CORPORATION, priority 2017, published 2022):

Test system: human iPS cells (TkDN4-M)
Experiment: Cell aggregate size distribution (widest portion) from micrographs during suspension culture
Assay type: cell-based
Conditions: cytochalasin D 20 nM, jasplakinolide 20 nM, demecolcine 10 ng/mL; for percentage of cell aggregates whose size (diameter) was 40 μm or more and 300 μm or less, relative to the total cell aggregate count / percentage of cell aggregates whose size (diameter) was 60 μm or more and 300 μm or less / percentage of cell aggregates whose size (diameter) was 80 μm or more and 300 μm or less / percentage of cell aggregates whose size (diameter) was 100 μm or more and 300 μm or less / Number of cell aggregates by size / Percentage of cell aggregates by size: Day 1, DMSO 1%; for average ± standard deviation of cell aggregate sizes (diameters): Day 1 of culture, DMSO 1% (v/v), Y-27632 10 μM
Description: Cell suspensions were prepared in the same manner as in Example 2, and separately, the concentrations of the suppressors of cell aggregation were adjusted so that the final concentration of demecolcine (same as above) was 10 mg/mL (26.9 mM), the final concentration of cytochalasin D (same as above) was 0.51 mg/mL (1 mM), the concentration of DMSO (the same as above) was the stock concentration, or the final concentration of jasplakinolide (Cayman, 11705) was 0.14 mg/mL (0.2 mM). Then the concentration-adjusted cell aggregation suppressors were added to the cell suspensions so that the final concentration of demecolcine was 10 ng/mL, the final concentration of cytochalasin D was 20 nM, the final concentration of DMSO was 1% (v/v), or the final concentration of jasplakinolide was 20 nM, and the cells were seeded at a rate of 4 mL/well in a 6-well plate for suspension culture (Sumitomo Bakelite Co., Ltd., Japan). The cell-seeded plate was subjected to a swirling culture on a rotary shaker (OPTIMA, Inc., Japan) at a speed of 90 rpm along the horizontal plane to draw a circle with a swirling width (diameter) of 25 mm and cells were subjected to suspension culture under the environment of 5% CO2 and 37° C. After the next day of culture (Day 1 of culture), the culture medium was exchanged daily with a fresh culture medium (Essential 8™ culture medium containing BSA (Wako Pure Chemical Industries, Ltd.) at a final concentration of 5 mg/mL), and the culture was continued until 5 days after the start of culture. Images were obtained by phase contrast microscopy every day during culture. While 182 to 252 cell aggregates in images obtained on Day 1 of culture being observed and compared using a micrograph scale, the width (referred to as “φ”) of the widest portion of each cell aggregate was measured, distribution thereof was examined, and average±standard deviation was calculated. The concentration of glucose contained in the culture supernatant collected at the time of culture medium exchange was measured with biosensor BF-5iD (Prince Measuring Equipment Co., Ltd.) to calculate glucose consumption.

## C=C1[C@@H](C)[C@H]2[C@H](Cc3ccccc3)NC(=O)[C@]23[C@H](OC(C)=O)/C=C/[C@@](C)(O)C(=O)[C@@H](C)C/C=C/[C@H]3[C@@H]1O [cytochalasin D]
  percentage of cell aggregates whose size (diameter) was 40 μm or more and 300 μm or less, relative to the total cell aggregate count: 100%
  percentage of cell aggregates whose size (diameter) was 60 μm or more and 300 μm or less: 96%
  percentage of cell aggregates whose size (diameter) was 80 μm or more and 300 μm or less: 88.1%
  percentage of cell aggregates whose size (diameter) was 100 μm or more and 300 μm or less: 80.6%
  average ± standard deviation of cell aggregate sizes (diameters): 132.5±34.8 μm
Size range 40− μm
  Number of cell aggregates by size: 10
  Percentage of cell aggregates by size: 4.0%
Size range 60− μm
  Number of cell aggregates by size: 20
  Percentage of cell aggregates by size: 7.9%
Size range 80− μm
  Number of cell aggregates by size: 19
  Percentage of cell aggregates by size: 7.5%
Size range 100− μm
  Number of cell aggregates by size: 26
  Percentage of cell aggregates by size: 10.3%
Size range 120− μm
  Number of cell aggregates by size: 60
  Percentage of cell aggregates by size: 23.8%
Size range 140− μm
  Number of cell aggregates by size: 66
  Percentage of cell aggregates by size: 26.2%
Size range 160− μm
  Number of cell aggregates by size: 40
  Percentage of cell aggregates by size: 15.9%
Size range 180− μm
  Number of cell aggregates by size: 10
  Percentage of cell aggregates by size: 4.0%
Size range 200− μm
  Number of cell aggregates by size: 0
  Percentage of cell aggregates by size: 0.0%
Size range 220− μm
  Number of cell aggregates by size: 1
  Percentage of cell aggregates by size: 0.4%
Size range 240− μm
  Number of cell aggregates by size: 0
  Percentage of cell aggregates by size: 0.0%
Size range 260− μm
  Number of cell aggregates by size: 0
  Percentage of cell aggregates by size: 0.0%
Size range 280− μm
  Number of cell aggregates by size: 0
  Percentage of cell aggregates by size: 0.0%
Size range 300− μm
  Number of cell aggregates by size: 0
  Percentage of cell aggregates by size: 0.0%

## C[S+](C)[O-] [DMSO, dimethylsulfoxide]
  percentage of cell aggregates whose size (diameter) was 40 μm or more and 300 μm or less, relative to the total cell aggregate count: 100%
  percentage of cell aggregates whose size (diameter) was 60 μm or more and 300 μm or less: 100%
  percentage of cell aggregates whose size (diameter) was 80 μm or more and 300 μm or less: 98.5%
  percentage of cell aggregates whose size (diameter) was 100 μm or more and 300 μm or less: 96.0%
  average ± standard deviation of cell aggregate sizes (diameters): 164.8±31.8 μm
Size range 40− μm
  Number of cell aggregates by size: 0
  Percentage of cell aggregates by size: 0.0%
Size range 60− μm
  Number of cell aggregates by size: 3
  Percentage of cell aggregates by size: 1.5%
Size range 80− μm
  Number of cell aggregates by size: 5
  Percentage of cell aggregates by size: 2.5%
Size range 100− μm
  Number of cell aggregates by size: 2
  Percentage of cell aggregates by size: 1.0%
Size range 120− μm
  Number of cell aggregates by size: 24
  Percentage of cell aggregates by size: 12.1%
Size range 140− μm
  Number of cell aggregates by size: 56
  Percentage of cell aggregates by size: 28.1%
Size range 160− μm
  Number of cell aggregates by size: 56
  Percentage of cell aggregates by size: 28.1%
Size range 180− μm
  Number of cell aggregates by size: 33
  Percentage of cell aggregates by size: 16.6%
Size range 200− μm
  Number of cell aggregates by size: 12
  Percentage of cell aggregates by size: 6.0%
Size range 220− μm
  Number of cell aggregates by size: 5
  Percentage of cell aggregates by size: 2.5%
Size range 240− μm
  Number of cell aggregates by size: 1
  Percentage of cell aggregates by size: 0.5%
Size range 260− μm
  Number of cell aggregates by size: 1
  Percentage of cell aggregates by size: 0.5%
Size range 280− μm
  Number of cell aggregates by size: 1
  Percentage of cell aggregates by size: 0.5%
Size range 300− μm
  Number of cell aggregates by size: 0
  Percentage of cell aggregates by size: 0.0%

## C/C1=C\[C@H](C)C[C@H](C)OC(=O)C[C@H](c2ccc(O)cc2)NC(=O)[C@@H](Cc2c(Br)[nH]c3ccccc23)N(C)C(=O)[C@H](C)NC(=O)[C@@H](C)C1 [jasplakinolide]
  percentage of cell aggregates whose size (diameter) was 40 μm or more and 300 μm or less, relative to the total cell aggregate count: 100%
  percentage of cell aggregates whose size (diameter) was 60 μm or more and 300 μm or less: 98.1%
  percentage of cell aggregates whose size (diameter) was 80 μm or more and 300 μm or less: 96.2%
  percentage of cell aggregates whose size (diameter) was 100 μm or more and 300 μm or less: 95.7%
  average ± standard deviation of cell aggregate sizes (diameters): 162.7±37.2 μm
Size range 40− μm
  Number of cell aggregates by size: 4
  Percentage of cell aggregates by size: 1.9%
Size range 60− μm
  Number of cell aggregates by size: 4
  Percentage of cell aggregates by size: 1.9%
Size range 80− μm
  Number of cell aggregates by size: 1
  Percentage of cell aggregates by size: 0.5%
Size range 100− μm
  Number of cell aggregates by size: 8
  Percentage of cell aggregates by size: 3.9%
Size range 120− μm
  Number of cell aggregates by size: 23
  Percentage of cell aggregates by size: 11.2%
Size range 140− μm
  Number of cell aggregates by size: 52
  Percentage of cell aggregates by size: 25.2%
Size range 160− μm
  Number of cell aggregates by size: 66
  Percentage of cell aggregates by size: 32.0%
Size range 180− μm
  Number of cell aggregates by size: 30
  Percentage of cell aggregates by size: 14.6%
Size range 200− μm
  Number of cell aggregates by size: 9
  Percentage of cell aggregates by size: 4.4%
Size range 220− μm
  Number of cell aggregates by size: 4
  Percentage of cell aggregates by size: 1.9%
Size range 240− μm
  Number of cell aggregates by size: 1
  Percentage of cell aggregates by size: 0.5%
Size range 260− μm
  Number of cell aggregates by size: 1
  Percentage of cell aggregates by size: 0.5%
Size range 280− μm
  Number of cell aggregates by size: 2
  Percentage of cell aggregates by size: 1.0%
Size range 300− μm
  Number of cell aggregates by size: 1
  Percentage of cell aggregates by size: 0.5%

## CN[C@H]1CCc2cc(OC)c(OC)c(OC)c2-c2ccc(OC)c(=O)cc21 [demecolcine]
  percentage of cell aggregates whose size (diameter) was 40 μm or more and 300 μm or less, relative to the total cell aggregate count: 100%
  percentage of cell aggregates whose size (diameter) was 60 μm or more and 300 μm or less: 97.3%
  percentage of cell aggregates whose size (diameter) was 80 μm or more and 300 μm or less: 93.5%
  percentage of cell aggregates whose size (diameter) was 100 μm or more and 300 μm or less: 92.4%
  average ± standard deviation of cell aggregate sizes (diameters): 184.9±44.9 μm
Size range 40− μm
  Number of cell aggregates by size: 5
  Percentage of cell aggregates by size: 2.7%
Size range 60− μm
  Number of cell aggregates by size: 7
  Percentage of cell aggregates by size: 3.8%
Size range 80− μm
  Number of cell aggregates by size: 2
  Percentage of cell aggregates by size: 1.1%
Size range 100− μm
  Number of cell aggregates by size: 0
  Percentage of cell aggregates by size: 0.0%
Size range 120− μm
  Number of cell aggregates by size: 2
  Percentage of cell aggregates by size: 1.1%
Size range 140− μm
  Number of cell aggregates by size: 16
  Percentage of cell aggregates by size: 8.8%
Size range 160− μm
  Number of cell aggregates by size: 37
  Percentage of cell aggregates by size: 20.3%
Size range 180− μm
  Number of cell aggregates by size: 45
  Percentage of cell aggregates by size: 24.7%
Size range 200− μm
  Number of cell aggregates by size: 38
  Percentage of cell aggregates by size: 20.9%
Size range 220− μm
  Number of cell aggregates by size: 19
  Percentage of cell aggregates by size: 10.4%
Size range 240− μm
  Number of cell aggregates by size: 8
  Percentage of cell aggregates by size: 4.4%
Size range 260− μm
  Number of cell aggregates by size: 2
  Percentage of cell aggregates by size: 1.1%
Size range 280− μm
  Number of cell aggregates by size: 0
  Percentage of cell aggregates by size: 0.0%
Size range 300− μm
  Number of cell aggregates by size: 1
  Percentage of cell aggregates by size: 0.5%
